This data set can be described thus: refractive index (Na D-line) (dimensionless). As to conditions: 293.15 K; 101.33 kPa; Liquid; Standard Abbe refractometry.

± gives the expanded uncertainty stated by the source.

As a reminder, the refractive index is a measure of how strongly the sample bends light.

`OCC(F)(F)C(F)(F)C(F)(F)C(F)F` [2,2,3,3,4,4,5,5-octafluoro-1-pentanol]: the refractive index was 1.3171 ± 0.0005. The result for `CCO` [ethanol] reads 1.3616 ± 0.0005; that for `O` [water], 1.3328 ± 0.0005.

The record behind these values is the NIST ThermoML archive (doi:10.1021/acs.jced.5b00436).
